In patent publication US20050282745A1, “Non-mammalian GnRH analogs and uses thereof in regulation of fertility and pregnancy” (priority 2001, published 2005):

Legend:
[1] = system: human term placental explants; test: Static explant culture, release of hCG, progesterone, PGE2; type: cell-based; settings: 0.25-1.00 μM, four placentas
Source text: The biological activity of the newly synthesized non-mammalian GnRH analogs was studied using a static implant culture system. This system allows for inexpensive extended activity studies. Mammalian GnRH action on the human placenta release of hCG, progesterone and prostaglandins were defined using this system. Replicate cultures were studied, thus allowing for comparison of different doses of each non-mammalian GnRH analog to mammalian GnRH (SEQ ID NO: 5), as well as direct competition assays. […] These studies were repeated using different human placentas. Siler-Khodr T M, Khodr G S, Valenzuela G, Rhode J 1986 Gonadotropin-releasing hormone effects on placental hormones during gestation: II. Progesterone, estrone, estradiol and estriol. Biol Reprod 34:255-264; Siler-Khodr T M, Khodr G S, Valenzuela G, Rhode J 1986 Gonadotropin-releasing hormone effects on placental hormones during gestation: 1 Alpha-human chorionic gonadotropin, human chorionic gonadotropin and human chorionic somatomammotropin. Biol Reprod 34:245-254; Siler-Khodr T M, Khodr G S, Valenzuela G, Harper J, Rhode J 1986 GnRH effects on placental hormones during gestation. 111 Prostaglandin E, prostaglandin F, and 13, 14-dihydro-15-keto-prostaglandin F. Biol Reprod 35:312-319.
In these and additional studies, an explant culture system was used to determine the effect of mammalian GnRH (SEQ ID NO: 5), chicken II GnRH (SEQ ID NO: 6), or the D-Arg(6)-chicken II GnRH-aza-Gly(10)-amide analog (SEQ ID NO: 2) on the release of the hCG, progesterone, and prostaglandin E2. Human term placentas were dissected free of membranes, minced into fragments of 5 mm, rinsed in medium, and a total weight of ˜100 mg (20 explants) was placed on a sterile filter paper resting on an organ culture grid such that they touched the surface of the culture medium, but were not immersed in it. The medium contained penicillin, streptomycin, and fungizone at 100 U/mL, 100 μg/mL, and 2.5 μg/mL respectively with and without varying doses of GnRH isoforms or analogs was added to each Petri dish. Triplicate chambers for each media were made and incubated at 37 C in a humidified chamber with an atmosphere of 5% CO2 and 95% air. Spent media were collected and replaced after 2 hours, 24 hours, and 48 hour of culture and stored frozen at −20° C. until assayed for hormones. HCG, progesterone, and PGE2 were measured using specific double antibody procedures as described previously. The chicken II GnRH analog (SEQ ID NO: 2) was studied using four different human term placentas, and the native chicken II GnRH isoform was also studied using one human term placenta. Gibbons J M, Mitnick M, Chieffo V 1975 In vitro biosynthesis, of TSH- and LH-releasing factors by the human placenta. Am J Obstet Gynecol 121:127-131.

[2] = system: human placental GnRH receptor; test: Placental GnRH receptor binding, radiolabeled D-Arg(6)-chicken II GnRH-aza-Gly(10)-amide label; settings: versus Buserelin label
Protocol: (§1) The newly synthesized non-mammalian GnRH analogs and other commercially available mammalian GnRH analogs were used in placental receptors binding and enzyme stability study described here. On the basis of these studies, the most receptor potent and enzyme-stable analogs were chosen for further biopotency studies. GnRH receptors were purified from the membrane fractions from placentas. The purification procedure for the placental GnRH receptor was performed using a modification of the method described by Bramley et al., which reference is specifically incorporated herein by reference for the purpose. Addition of enzyme inhibitors for the endogenous C-ase-1 were used as well as agents for receptor stabilization. Initially, receptor-binding assays using ^125I-Buserelin as label were performed. The competitive binding of each of the analogs was studied over a dose range of 10^−11 to 10^−6 M. Incubation was at room temperature and receptor bound label was precipitated with polyethylene glycol. Specific and non-specific binding was determined. The data was subjected to Scatchard analysis. The non-mammalian GnRH analogs' ability to bind to the placental GnRH receptor was compared to that for synthetic mammalian GnRH (SEQ ID NO: 5), Buserelin (SEQ ID NO: 10) and other mammalian analogs. […] This way, the receptor affinity for that analog could be precisely determined. Receptors from three different term placentas were used to study each of these analogs. […] Bramley T A, McPhie C A, Menzies G S 1994 Human placental gonadotropin-releasing hormone (GnRH) binding sites: 111. Changes in GnRH binding levels with stage of gestation. Placenta 15:733-745.
(§2) In these and additional studies, placental GnRH receptors were purified from human term placentas after homogenization in 40 mM Tris (pH 7.4) and filtered through cheesecloth, followed by an initial centrifugation at 1,000×g for 10 minutes. The resulting supernatant was, again, centrifuged at 35,000×g for 30 minutes and the membrane pellet was collected and resuspended in Tris buffer with 0.3 M sucrose. The protein concentration was determined. Membranes were stored frozen at −20 C until use. Before use, placental membranes were diluted to 5,000 μg/mL with Tris buffer containing 0.5% BSA and 50 U/mL bacitracin. Placental membranes (100 μL) were used with varying concentrations of mammalian GnRH (SEQ ID NO: 5), Buserelin (SEQ ID NO: 10), chicken II GnRH (SEQ ID NO: 6), D-Arg (6)-chicken II GnRH-des-Gly (10)-ethylamide (SEQ ID NO: 2), or D-Arg (6)-chicken II GnRH-aza-Gly (10)-amide (SEQ ID NO: 2) (100 μL) and either radiolabeled Buserelin (SEQ ID NO: 10) or radiolabeled D-Arg (6)-chicken II GnRH-aza-Gly (10)-amide (SEQ ID NO: 2) (100 μL/tube and iodinated). Following incubation at room temperature for 4 hours, the bound and free hormones were separated using polyethylene glycol precipitation, followed by centrifugation. The binding affinity for each GnRH isoform or analog was calculated using the double reciprocal plot of bound versus free ligand. Each study was done using three different human term placental tissues.

[3] = system: chorionic peptidase-1 (C-ase-1)
[4] = system: chorionic peptidase-1 (C-ase-1); settings: neutral pH; read-out: Km for degradation by C-ase-1; cited from earlier work
[5] = system: baboon ovarian enzymatic activity
Protocol: In these studies the enzyme was in the ovarian extract.
In this assay, following incubation of the enzyme and GnRH, with and without the chosen analog, the reaction was stopped by heating and the remaining GnRH substrate was quantified by radioimmunoassay. The product formed is calculated by subtraction, and its inverse plotted against the inverse of the original substrate concentrations to determine the nature of the competition. The Ki was determined by plotting the inverse of the product formed versus the inhibitor used.

[6] = system: chorionic peptidase-1 (C-ase-1); test: C-ase-1 enzyme activity assay, competition for degradation of GnRH; settings: Lineweaver-Burke plot
[7] = biological target: human placental GnRH receptor; test: Placental GnRH receptor binding, 125I-Buserelin label; settings: 125I-Buserelin, Example VI; read-out: Kd
Protocol: as §1, with “On the basis of these studies, the most receptor potent and enzyme-stable analogs were chosen for further biopotency studies.” left out, “Changes in GnRH binding levels with stage of gestation.” left out
as §2, with “Placental membranes (100 μL) were used with varying concentrations of mammalian GnRH (SEQ ID NO: 5), Buserelin (SEQ ID NO: 10), chicken II GnRH (SEQ ID NO: 6), D-Arg (6)-chicken II GnRH-des-Gly (10)-ethylamide (SEQ ID NO: 2), or D-Arg (6)-chicken II GnRH-aza-Gly (10)-amide (SEQ ID NO: 2) (100 μL) and either radiolabeled Buserelin (SEQ ID NO: 10) or radiolabeled D-Arg (6)-chicken II GnRH-aza-Gly (10)-amide (SEQ ID NO: 2) (100 μL/tube and iodinated).” left out
Receptor assays were performed by incubating human term placental GnRH receptors with varying concentrations of GnRH or its analogs in the presence of ^125I-Buserelin. The reaction was stopped and the bound hormone precipitated with polyethylene glycol.

## CC(C)C[C@H](NC(=O)CNC(=O)[C@H](Cc1ccc(O)cc1)NC(=O)[C@H](CO)NC(=O)[C@H](Cc1c[nH]c2ccccc12)NC(=O)[C@H](Cc1cnc[nH]1)NC(=O)[C@@H]1CCC(=O)N1)C(=O)N[C@@H](CCCNC(=N)N)C(=O)N1CCC[C@H]1C(=O)NCC(N)=O [mammalian GnRH]
[1]
  effect on progesterone release: not affected by mammalian GnRH (SEQ ID NO: 5) in two of four placentas, but in one placenta it was significantly increased and in the other was decreased
  effect on release of hCG: no significant effect
[2]
  decrease of affinity when the analog is used as label: 1.5 times
[3]
  degradation by / competition for C-ase-1, in words: actively degraded
[4]
  Km: 0.01 µM
[5]
  Ks for degradation by ovarian tissues: ~30 nM
[6]
  Ks for degradation by C-ase-1: ~30 nM
[7]
  Kd: 1000 nM
